Measured values reported in PubChem BioAssay (NCI).
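How tested: cells in 96-well plates exposed to compound for 48 hours at five concentrations. GI50 marks 50% less growth. TGI: concentration producing complete growth inhibition.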

Tests used:
Experiment in all cases: DTP human tumour cell line panel, 48 h
HOP-92 NSCLC = system: HOP-92 NSCLC
NCI-H522 lung = system: NCI-H522 lung
TK-10 renal = system: TK-10 renal
MDA-MB-435 = system: MDA-MB-435
SF-268 CNS = system: SF-268 CNS
EKVX NSCLC = system: EKVX NSCLC
HS 578T breast = system: HS 578T breast
BT-549 breast = system: BT-549 breast
PC-3 prostate = system: PC-3 prostate
MDA-MB-468 breast = system: MDA-MB-468 breast
MOLT-4 leukemia = system: MOLT-4 leukemia
RXF 393 renal = system: RXF 393 renal
MCF7 breast = system: MCF7 breast
OVCAR-5 ovarian = system: OVCAR-5 ovarian
T-47D breast = system: T-47D breast
DU-145 prostate = system: DU-145 prostate
SF-539 CNS = system: SF-539 CNS
UACC-257 melanoma = system: UACC-257 melanoma
RPMI-8226 leukemia = system: RPMI-8226 leukemia
OVCAR-4 ovarian = system: OVCAR-4 ovarian
HCC-2998 colon = system: HCC-2998 colon
SF-295 CNS = system: SF-295 CNS
A549 NSCLC = system: A549 NSCLC
A498 renal = system: A498 renal
HOP-62 NSCLC = system: HOP-62 NSCLC
SN12C renal = system: SN12C renal
SK-OV-3 ovarian = system: SK-OV-3 ovarian
K-562 leukemia = system: K-562 leukemia
NCI-H23 lung = system: NCI-H23 lung
HT29 colon = system: HT29 colon
KM12 colon = system: KM12 colon
NCI-H226 lung = system: NCI-H226 lung
HCT-116 colon = system: HCT-116 colon
OVCAR-3 ovarian = system: OVCAR-3 ovarian
SNB-19 CNS = system: SNB-19 CNS
OVCAR-8 ovarian = system: OVCAR-8 ovarian
SK-MEL-28 melanoma = system: SK-MEL-28 melanoma
LOX IMVI melanoma = system: LOX IMVI melanoma
SK-MEL-5 melanoma = system: SK-MEL-5 melanoma
CCRF-CEM leukemia = system: CCRF-CEM leukemia
NCI-H460 lung = system: NCI-H460 lung
ACHN renal = system: ACHN renal
SNB-75 CNS = system: SNB-75 CNS
MDA-MB-231 breast = system: MDA-MB-231 breast
HL-60(TB) leukemia = system: HL-60(TB) leukemia
HCT-15 colon = system: HCT-15 colon
IGROV1 ovarian = system: IGROV1 ovarian
SW-620 colon = system: SW-620 colon
UACC-62 melanoma = system: UACC-62 melanoma
NCI/ADR-RES ovarian = system: NCI/ADR-RES ovarian
UO-31 renal = system: UO-31 renal
MALME-3M melanoma = system: MALME-3M melanoma
SK-MEL-2 melanoma = system: SK-MEL-2 melanoma
U251 CNS = system: U251 CNS
786-0 renal = system: 786-0 renal
SR leukemia = system: SR leukemia
CAKI-1 renal = system: CAKI-1 renal
M14 melanoma = system: M14 melanoma
COLO 205 colon = system: COLO 205 colon

Structure (SMILES): CC1[C@H]2[C@H](C[C@H]3[C@@H]4CC=C5c6sc(Nc7ccccc7F)nc6CC[C@]5(C)[C@H]4CC[C@@]32C)O[C@]12CC[C@@H](C)CO2 (stereo partly drawn)
- GI50 (HOP-92 NSCLC): 42.3 µM
- TGI (HOP-92 NSCLC): > 100 µM
- GI50 (NCI-H522 lung): 34.7 µM
- TGI (NCI-H522 lung): > 100 µM
- GI50 (TK-10 renal): > 100 µM
- TGI (TK-10 renal): > 100 µM
- GI50 (MDA-MB-435): 95.4 µM
- TGI (MDA-MB-435): > 100 µM
- GI50 (SF-268 CNS): > 100 µM
- TGI (SF-268 CNS): > 100 µM
- GI50 (EKVX NSCLC): > 100 µM
- TGI (EKVX NSCLC): > 100 µM
- GI50 (HS 578T breast): > 100 µM
- TGI (HS 578T breast): > 100 µM
- GI50 (BT-549 breast): 26.4 µM
- TGI (BT-549 breast): > 100 µM
- GI50 (PC-3 prostate): 26.3 µM
- TGI (PC-3 prostate): > 100 µM
- GI50 (MDA-MB-468 breast): 25.1 µM
- TGI (MDA-MB-468 breast): > 100 µM
- GI50 (MOLT-4 leukemia): 25.7 µM
- TGI (MOLT-4 leukemia): > 100 µM
- GI50 (RXF 393 renal): 9.09 µM
- TGI (RXF 393 renal): 66.7 µM
- GI50 (MCF7 breast): 38.2 µM
- TGI (MCF7 breast): > 100 µM
- GI50 (OVCAR-5 ovarian): > 100 µM
- TGI (OVCAR-5 ovarian): > 100 µM
- GI50 (T-47D breast): 25 µM
- TGI (T-47D breast): > 100 µM
- GI50 (DU-145 prostate): > 100 µM
- TGI (DU-145 prostate): > 100 µM
- GI50 (SF-539 CNS): 80.9 µM
- TGI (SF-539 CNS): > 100 µM
- GI50 (UACC-257 melanoma): 54.1 µM
- TGI (UACC-257 melanoma): > 100 µM
- GI50 (RPMI-8226 leukemia): 35.5 µM
- TGI (RPMI-8226 leukemia): > 100 µM
- GI50 (OVCAR-4 ovarian): > 100 µM
- TGI (OVCAR-4 ovarian): > 100 µM
- GI50 (HCC-2998 colon): > 100 µM
- TGI (HCC-2998 colon): > 100 µM
- GI50 (SF-295 CNS): 53.3 µM
- TGI (SF-295 CNS): > 100 µM
- GI50 (A549 NSCLC): > 100 µM
- TGI (A549 NSCLC): > 100 µM
- GI50 (A498 renal): > 100 µM
- TGI (A498 renal): > 100 µM
- GI50 (HOP-62 NSCLC): > 100 µM
- TGI (HOP-62 NSCLC): > 100 µM
- GI50 (SN12C renal): > 100 µM
- TGI (SN12C renal): > 100 µM
- GI50 (SK-OV-3 ovarian): > 100 µM
- TGI (SK-OV-3 ovarian): > 100 µM
- GI50 (K-562 leukemia): 26.6 µM
- TGI (K-562 leukemia): > 100 µM
- GI50 (NCI-H23 lung): 59.5 µM
- TGI (NCI-H23 lung): > 100 µM
- GI50 (HT29 colon): 60.3 µM
- TGI (HT29 colon): > 100 µM
- GI50 (KM12 colon): > 100 µM
- TGI (KM12 colon): > 100 µM
- GI50 (NCI-H226 lung): > 100 µM
- TGI (NCI-H226 lung): > 100 µM
- GI50 (HCT-116 colon): 37.3 µM
- TGI (HCT-116 colon): > 100 µM
- GI50 (OVCAR-3 ovarian): > 100 µM
- TGI (OVCAR-3 ovarian): > 100 µM
- GI50 (SNB-19 CNS): > 100 µM
- TGI (SNB-19 CNS): > 100 µM
- GI50 (OVCAR-8 ovarian): > 100 µM
- TGI (OVCAR-8 ovarian): > 100 µM
- GI50 (SK-MEL-28 melanoma): > 100 µM
- TGI (SK-MEL-28 melanoma): > 100 µM
- GI50 (LOX IMVI melanoma): 67.1 µM
- TGI (LOX IMVI melanoma): > 100 µM
- GI50 (SK-MEL-5 melanoma): 31.7 µM
- TGI (SK-MEL-5 melanoma): > 100 µM
- GI50 (CCRF-CEM leukemia): 5.1 µM
- TGI (CCRF-CEM leukemia): > 100 µM
- GI50 (NCI-H460 lung): 91.1 µM
- TGI (NCI-H460 lung): > 100 µM
- GI50 (ACHN renal): > 100 µM
- TGI (ACHN renal): > 100 µM
- GI50 (SNB-75 CNS): 31.2 µM
- TGI (SNB-75 CNS): > 100 µM
- GI50 (MDA-MB-231 breast): > 100 µM
- TGI (MDA-MB-231 breast): > 100 µM
- GI50 (HL-60(TB) leukemia): 30.1 µM
- TGI (HL-60(TB) leukemia): > 100 µM
- GI50 (HCT-15 colon): 56.1 µM
- TGI (HCT-15 colon): > 100 µM
- GI50 (IGROV1 ovarian): > 100 µM
- TGI (IGROV1 ovarian): > 100 µM
- GI50 (SW-620 colon): 76.1 µM
- TGI (SW-620 colon): > 100 µM
- GI50 (UACC-62 melanoma): 43.1 µM
- TGI (UACC-62 melanoma): > 100 µM
- GI50 (NCI/ADR-RES ovarian): > 100 µM
- TGI (NCI/ADR-RES ovarian): > 100 µM
- GI50 (UO-31 renal): > 100 µM
- TGI (UO-31 renal): > 100 µM
- GI50 (MALME-3M melanoma): > 100 µM
- TGI (MALME-3M melanoma): > 100 µM
- GI50 (SK-MEL-2 melanoma): > 100 µM
- TGI (SK-MEL-2 melanoma): > 100 µM
- GI50 (U251 CNS): > 100 µM
- TGI (U251 CNS): > 100 µM
- GI50 (786-0 renal): 85.4 µM
- TGI (786-0 renal): > 100 µM
- GI50 (SR leukemia): 24.8 µM
- TGI (SR leukemia): > 100 µM
- GI50 (CAKI-1 renal): > 100 µM
- TGI (CAKI-1 renal): > 100 µM
- GI50 (M14 melanoma): 86.7 µM
- TGI (M14 melanoma): > 100 µM
- GI50 (COLO 205 colon): 62.1 µM
- TGI (COLO 205 colon): > 100 µM
